Test results as given in patent US20260327191A1, “GSK3a INHIBITORS AND METHODS OF USE THEREOF” (Blueprint Medicines Corporation, priority 2023, published 2026).
Like-named read-outs stand apart in the source and are kept apart here.

Key:
GSK3B [1] = target: T1, GSK3B (Homo sapiens, UniProt P49841); test: In vitro enzymatic activity assay, GSK3β; format: biochemical; parameters: Full length human GSK3α or GSK3B expressed as N-terminal GST fusion proteins; GST (N); purchased Carna Biosciences (Japan); host or cells: baculovirus host; conditions: 1.0 mM ATP, 1.0 μM peptide substrate, 120 min, 25° C
T1 sequence (P49841 whole entry, the tested form may be a part): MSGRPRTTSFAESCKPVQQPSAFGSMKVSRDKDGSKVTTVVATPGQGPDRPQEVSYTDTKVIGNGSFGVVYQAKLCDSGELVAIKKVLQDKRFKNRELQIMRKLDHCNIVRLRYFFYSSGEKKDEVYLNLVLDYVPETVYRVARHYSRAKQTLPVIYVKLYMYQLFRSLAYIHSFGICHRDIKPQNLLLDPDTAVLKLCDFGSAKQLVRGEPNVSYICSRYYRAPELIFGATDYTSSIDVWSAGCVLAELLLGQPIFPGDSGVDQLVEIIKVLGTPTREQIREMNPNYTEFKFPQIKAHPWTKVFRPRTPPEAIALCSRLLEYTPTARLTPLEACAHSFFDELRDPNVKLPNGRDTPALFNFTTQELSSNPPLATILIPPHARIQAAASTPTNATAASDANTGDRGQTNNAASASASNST

GSK3B [2] = target: T1, GSK3B; test: NanoBRET cellular target engagement assay, Nanoluc-GSK3B in HEK293 cells; format: cell-based; parameters: expressed in transfected cells; conditions: NanoBRET GSK3β IC50, HEK293 cells, tracer K-8, 2 hours, 37° C
GSK3A = target: T2, GSK3A (Homo sapiens, UniProt P49840); test: NanoBRET cellular target engagement assay, Nanoluc-GSK3A in HEK293 cells; format: cell-based; conditions: NanoBRET GSK3α IC50, HEK293 cells, tracer K-8, 2 hours, 37° C
T2 construct: expressed in transfected cells
T2 sequence (P49840 whole entry): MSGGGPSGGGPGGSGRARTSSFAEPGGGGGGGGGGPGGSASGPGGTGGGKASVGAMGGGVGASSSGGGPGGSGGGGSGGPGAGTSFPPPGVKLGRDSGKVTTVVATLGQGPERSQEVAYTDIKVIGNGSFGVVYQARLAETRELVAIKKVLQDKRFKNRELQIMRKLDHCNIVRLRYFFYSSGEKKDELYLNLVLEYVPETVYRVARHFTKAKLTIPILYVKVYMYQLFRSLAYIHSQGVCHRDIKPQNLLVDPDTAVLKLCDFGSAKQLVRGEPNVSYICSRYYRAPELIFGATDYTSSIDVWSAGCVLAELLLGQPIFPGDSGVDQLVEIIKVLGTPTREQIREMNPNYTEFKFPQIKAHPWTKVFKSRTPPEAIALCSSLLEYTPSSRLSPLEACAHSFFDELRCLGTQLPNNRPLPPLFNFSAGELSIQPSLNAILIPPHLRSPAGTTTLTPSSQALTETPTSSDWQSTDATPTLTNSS

human GSK3α = target: T3, human GSK3α (Homo sapiens, UniProt P49840); test: In vitro enzymatic activity assay, GSK3α; format: biochemical; conditions: 1.0 mM ATP, 1.0 μM peptide substrate, 120 min, 25° C
T3 construct: Full length human GSK3α or GSK3B expressed as N-terminal GST fusion proteins; GST (N); purchased Carna Biosciences (Japan); host or cells: baculovirus host
T3 sequence (P49840 whole entry, the tested form may be a part): as the sequence (P49840 whole entry) above

Row | SMILES | IC50 (GSK3B [1]; read-out: Enzyme GSK3β (IC50)) | IC50 (GSK3B [2]) | IC50 (GSK3A) | IC50 (human GSK3α; read-out: Enzyme GSK3α (IC50)) | IC50 (GSK3B [1]; Enzyme GSK3β (IC50)) | IC50 (human GSK3α; Enzyme GSK3α (IC50))
1 | Cc1cc(C)c(-n2cnc(N)c(C(=O)Nc3cncc(C(C)N)c3)c2=O)c(C)c1 (single isomer, unassigned) [Example 147, (R)-4-amino-N-(5-(1-aminoethyl)pyridin-3-yl)-1-mesityl-6-oxo-1,6-dihydropyrimidine-5-carboxamide or (S)-4-amino-N-(5-(1-aminoethyl)pyridin-3-yl)-1-mesityl-6-oxo-1,6-dihydropyrimidine-5-carboxamide] | 392 nM | 354 nM | 3.8 nM | 8.8 nM |  | 
2 | CCNCc1cncc(NC(=O)c2c(N)ncn(-c3c(Cl)cc(C(=O)OCC)cc3Cl)c2=O)c1 [Example 199, ethyl 4-(4-amino-5-((5-((ethylamino)methyl)pyridin-3-yl)carbamoyl)-6-oxopyrimidin-1 (6H)-yl)-3,5-dichlorobenzoate] | 203 nM | 118 nM | 2.4 nM | 3.3 nM |  | 
3 | CCOCc1cc(Cl)c(-n2cnc(N)c(C(=O)Nc3cncc(C(N)CC)c3)c2=O)c(Cl)c1 (single isomer, unassigned) [Example 129, (R)-4-amino-N-(5-(1-aminopropyl)pyridin-3-yl)-1-(2,6-dichloro-4-(ethoxymethyl)phenyl)-6-oxo-1,6-dihydropyrimidine-5-carboxamide or (S)-4-amino-N-(5-(1-aminopropyl)pyridin-3-yl)-1-(2,6-dichloro-4-(ethoxymethyl)phenyl)-6-oxo-1,6-dihydropyrimidine-5-carboxamide] | 105 nM | 81.7 nM | 1.2 nM | 2.1 nM |  | 
4 | Nc1ncn(-c2c(Cl)cc(C(F)(F)F)cc2Cl)c(=O)c1C(=O)Nc1cncc([C@@H]2CCCN2)c1 [Example 118, (S)-4-amino-1-(2,6-dichloro-4-(trifluoromethyl)phenyl)-6-oxo-N-(5-(pyrrolidin-2-yl)pyridin-3-yl)-1,6-dihydropyrimidine-5-carboxamide] | 450 nM | 566 nM | 9.4 nM | 11.2 nM |  | 
5 | CN[C@H](C)c1cccc(NC(=O)c2c(N)ncn(-c3c(C)cc(C(F)(F)F)cc3Cl)c2=O)c1 (atropisomer, axis not shown) [Example 33, 4-amino-1-((S)-2-chloro-6-methyl-4-(trifluoromethyl)phenyl)-N-(3-((R)-1-(methylamino)ethyl)phenyl)-6-oxo-1,6-dihydropyrimidine-5-carboxamide] | 343 nM | 461 nM | 8.3 nM | 6.4 nM |  | 
6 | CCOC[C@H](N)c1cncc(NC(=O)c2c(N)ncn(-c3c(Cl)cc(COC)cc3Cl)c2=O)c1 (single isomer, unassigned) [Example 69, (R)-4-amino-N-(5-(1-amino-2-ethoxyethyl)pyridin-3-yl)-1-(2,6-dichloro-4-(methoxymethyl)phenyl)-6-oxo-1,6-dihydropyrimidine-5-carboxamide or (S)-4-amino-N-(5-(1-amino-2-ethoxyethyl)pyridin-3-yl)-1-(2,6-dichloro-4-(methoxymethyl)phenyl)-6-oxo-1,6-dihydropyrimidine-5-carboxamide] | 536 nM | 513 nM | 7 nM | 12.5 nM |  | 
7 | COCc1cc(Cl)c(-n2cnc(N)c(C(=O)Nc3cncc(CNC(C)C)c3)c2=O)c(Cl)c1 [Example 64, 4-amino-1-(2,6-dichloro-4-(methoxymethyl)phenyl)-N-(5-((isopropylamino)methyl)pyridin-3-yl)-6-oxo-1,6-dihydropyrimidine-5-carboxamide] | 621 nM | 489 nM | 6.5 nM | 11.7 nM |  | 
8 | COc1cc(Cl)c(-n2cnc(N)c(C(=O)Nc3cnnc(C4CCCCN4)c3)c2=O)c(Cl)c1 (single isomer, unassigned) [Example 172, (R)-4-amino-1-(2,6-dichloro-4-methoxyphenyl)-6-oxo-N-(6-(piperidin-2-yl)pyridazin-4-yl)-1,6-dihydropyrimidine-5-carboxamide or (S)-4-amino-1-(2,6-dichloro-4-methoxyphenyl)-6-oxo-N-(6-(piperidin-2-yl)pyridazin-4-yl)-1,6-dihydropyrimidine-5-carboxamide] | 260 nM | 98.8 nM | 3.5 nM | 6.3 nM |  | 
9 | CO[C@H](C)c1cc(C)c(-n2cnc(N)c(C(=O)Nc3cncc([C@@H](C)N)c3)c2=O)c(C)c1 (single isomer, unassigned) [Example 175] | 803 nM | 581 nM | 8.1 nM | 32.6 nM |  | 
10 | CCOc1cc(Cl)c(-n2cnc(N)c(C(=O)Nc3cncc(C(N)C4CC4)c3)c2=O)c(Cl)c1 (single isomer, unassigned) [Example 139, (R)-4-amino-N-(5-(amino(cyclopropyl)methyl)pyridin-3-yl)-1-(2,6-dichloro-4-ethoxyphenyl)-6-oxo-1,6-dihydropyrimidine-5-carboxamide or (S)-4-amino-N-(5-(amino(cyclopropyl)methyl)pyridin-3-yl)-1-(2,6-dichloro-4-ethoxyphenyl)-6-oxo-1,6-dihydropyrimidine-5-carboxamide] | 560 nM | 281 nM | 5.1 nM | 10.9 nM |  | 
11 | Cc1cc(CC(=O)O)cc(C)c1-n1cnc(N)c(C(=O)Nc2cncc([C@H]3CCCCN3)c2)c1=O [Example 207, (R)-2-(4-(4-amino-6-oxo-5-((5-(piperidin-2-yl)pyridin-3-yl)carbamoyl)pyrimidin-1 (6H)-yl)-3,5-dimethylphenyl) acetic acid] |  | 25000 nM | 966 nM |  | 234 nM | 5.3 nM
12 | Nc1ncn(-c2c(Cl)cc(OC3CC3)cc2Cl)c(=O)c1C(=O)Nc1cncc([C@@H]2CCCN2)c1 [Example 194, (S)-4-amino-1-(2,6-dichloro-4-cyclopropoxyphenyl)-6-oxo-N-(5-(pyrrolidin-2-yl)pyridin-3-yl)-1,6-dihydropyrimidine-5-carboxamide] | 302 nM | 330 nM | 5.1 nM | 6.2 nM |  | 
13 | Cc1cc(C(F)(F)F)cc(C)c1-n1cnc(N)c(C(=O)Nc2cncc(C3CCC(C)N3)c2)c1=O (single isomer, unassigned) [Example 87] | 1130 nM | 543 nM | 7.6 nM | 17.9 nM |  | 
14 | CCC[C@@H](N)c1cncc(NC(=O)c2c(N)ncn(-c3c(C)cc(C(F)F)cc3C)c2=O)c1 [Example 106, (R)-4-amino-N-(5-(1-aminobutyl)pyridin-3-yl)-1-(4-(difluoromethyl)-2,6-dimethylphenyl)-6-oxo-1,6-dihydropyrimidine-5-carboxamide] | 279 nM | 195 nM | 2.8 nM | 4.5 nM |  | 
15 | CCNCc1cncc(NC(=O)c2c(N)ncn(-c3c(Cl)cc(CC(F)F)cc3Cl)c2=O)c1 [Example 203, 4-amino-1-(2,6-dichloro-4-(2,2-difluoroethyl)phenyl)-N-(5-((ethylamino)methyl)pyridin-3-yl)-6-oxo-1,6-dihydropyrimidine-5-carboxamide] | 318 nM | 293 nM | 3.7 nM | 8 nM |  | 
16 | COC(=O)c1cc(Cl)c(-n2cnc(N)c(C(=O)Nc3cncc([C@@H]4CCCCN4)c3)c2=O)c(Cl)c1 [Example 196, methyl(S)-4-(4-amino-6-oxo-5-((5-(piperidin-2-yl)pyridin-3-yl)carbamoyl)pyrimidin-1 (6H)-yl)-3,5-dichlorobenzoate] | 400 nM | 242 nM | 4.2 nM | 6.6 nM |  | 
17 | CCNCc1cncc(NC(=O)c2c(N)ncn(-c3c(Cl)cc(COC)cc3Cl)c2=O)c1 [Example 60, 4-amino-1-(2,6-dichloro-4-(methoxymethyl)phenyl)-N-(5-((ethylamino)methyl)pyridin-3-yl)-6-oxo-1,6-dihydropyrimidine-5-carboxamide] | 334 nM | 200 nM | 3 nM | 6.5 nM |  | 
18 | Cc1cc(CC(F)F)cc(C)c1-n1cnc(N)c(C(=O)Nc2cncc(C(C)N)c2)c1=O (single isomer, unassigned) [Example 144, (R)-4-amino-N-(5-(1-aminoethyl)pyridin-3-yl)-1-(4-(2,2-difluoroethyl)-2,6-dimethylphenyl)-6-oxo-1,6-dihydropyrimidine-5-carboxamide or (S)-4-amino-N-(5-(1-aminoethyl)pyridin-3-yl)-1-(4-(2,2-difluoroethyl)-2,6-dimethylphenyl)-6-oxo-1,6-dihydropyrimidine-5-carboxamide] | 472 nM | 375 nM | 5 nM | 11 nM |  | 
19 | CCNCc1cccc(NC(=O)c2c(N)ncn(-c3c(C)cc(C(F)F)cc3Cl)c2=O)c1 (atropisomer, axis not shown) [Example 11, 4-amino-1-((S)-2-chloro-4-(difluoromethyl)-6-methylphenyl)-N-(3-((ethylamino)methyl)phenyl)-6-oxo-1,6-dihydropyrimidine-5-carboxamide] | 648 nM | 252 nM | 4.1 nM | 14.4 nM |  | 
